Test results from the supplement of paper PMC6045584.
± gives the standard deviation of the averaged measurements.

Legend:
[1] = compound: C=CCNC1=C2C[C@@H](C)C[C@H](OC)[C@H](O)[C@@H](C)/C=C(\C)[C@H](OC(N)=O)[C@@H](OC)/C=C\C=C(/C)C(=O)NC(=CC1=O)C2=O [17-AAG]; test: surviving fraction relative to DMSO-only wells; higher = less growth inhibition; settings: exposure time: 5 days
Method in brief: (§1)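 Continuous five-day exposure to inhibitors at 0.5, 1, 5, 10, 50, 100, 500 and 1000 nM started 24 hours after log-phase tumour cell lines were seeded at 250–500 cells per well in 384-well plates. Luminescence was read after 10 minutes at room temperature. Viability is given as surviving fraction, meaning CellTiter-Glo luminescence normalised to the median of DMSO-only wells.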

[2] = compound: CN(C)CC[C@H](CSc1ccccc1)Nc1ccc(S(=O)(=O)NC(=O)c2ccc(N3CCN(Cc4ccccc4-c4ccc(Cl)cc4)CC3)cc2)cc1[N+](=O)[O-] [ABT-737]; test: as above; settings: exposure time: 5 days
Method in brief: as §1

Row | Test System | surviving fraction ([1]; 0.5 nM) | surviving fraction ([1]; 1 nM) | surviving fraction ([1]; 5 nM) | surviving fraction ([1]; 10 nM) | surviving fraction ([1]; 50 nM) | surviving fraction ([1]; 100 nM) | surviving fraction ([1]; 500 nM) | surviving fraction ([1]; 1000 nM) | surviving fraction ([2]; 0.5 nM) | surviving fraction ([2]; 1 nM) | surviving fraction ([2]; 5 nM) | surviving fraction ([2]; 10 nM) | surviving fraction ([2]; 50 nM) | surviving fraction ([2]; 100 nM) | surviving fraction ([2]; 500 nM) | surviving fraction ([2]; 1000 nM)
1 | 22RV1 PROSTATE | 0.906 ± 0.038 | 0.989 ± 0.043 | 0.975 ± 0.027 | 0.91 ± 0.069 | 0.687 ± 0.07 | 0.336 ± 0.047 | 0.134 ± 0.0046 | 0.0907 ± 0.011 | 0.997 ± 0.07 | 1.13 ± 0.22 | 1.03 ± 0.063 | 0.995 ± 0.079 | 1.07 ± 0.086 | 1.03 ± 0.13 | 1.1 ± 0.042 | 0.96 ± 0.097
2 | 93VU HEADNECK | 0.814 ± 0.066 | 0.78 ± 0.0099 | 0.822 ± 0.088 | 0.92 ± 0.087 | 1.13 ± 0.099 | 0.119 ± 0.011 | 0.092 ± 0.0062 | 0.0827 ± 0.005 | 1.146 ± 0.0083 | 1.09 ± 0.057 | 1.21 ± 0.19 | 1.16 ± 0.031 | 1.23 ± 0.069 | 1.17 ± 0.09 | 1.12 ± 0.09 | 1.04 ± 0.074
3 | 143B BONE | 0.985 ± 0.047 | 0.992 ± 0.063 | 1.02 ± 0.029 | 0.965 ± 0.021 | 0.651 ± 0.011 | 0.271 ± 0.0071 | 0.0855 ± 0.00071 | 0.0855 ± 0.00071 | 1.08 ± 0.042 | 1.09 ± 0.027 | 1.14 ± 0.092 | 1.11 ± 0.071 | 1.13 ± 0.054 | 1.115 ± 0.0057 | 1.12 ± 0.037 | 1.14 ± 0.064
4 | A549 LUNG | 0.923 ± 0.039 | 0.909 ± 0.038 | 0.91 ± 0.007 | 0.813 ± 0.076 | 0.14 ± 0.014 | 0.06 ± 0.0044 | 0.0547 ± 0.0032 | 0.0493 ± 0.00058 | 1.06 ± 0.012 | 1.05 ± 0.022 | 1.07 ± 0.023 | 1.06 ± 0.03 | 1.07 ± 0.039 | 1.09 ± 0.039 | 1.12 ± 0.044 | 1.05 ± 0.053
5 | ASKA SYNOVIAL | 0.785 ± 0.062 | 0.728 ± 0.11 | 0.626 ± 0.045 | 0.293 ± 0.025 | 0.206 ± 0.014 | 0.182 ± 0.02 | 0.185 ± 0.011 | 0.226 ± 0.0099 | 1.15 ± 0.031 | 1.19 ± 0.044 | 1.2 ± 0.027 | 1.16 ± 0.047 | 1.1 ± 0.05 | 1.11 ± 0.076 | 0.914 ± 0.084 | 0.79 ± 0.066
6 | BT20 BREAST | 0.804 ± 0.1 | 0.793 ± 0.054 | 0.504 ± 0.08 | 0.308 ± 0.034 | 0.303 ± 0.061 | 0.282 ± 0.091 | 0.261 ± 0.068 | 0.278 ± 0.047 | 1.2 ± 0.061 | 1.19 ± 0.089 | 1.15 ± 0.06 | 1.26 ± 0.06 | 1.14 ± 0.14 | 1.18 ± 0.13 | 1.14 ± 0.043 | 1.07 ± 0.064
7 | BT549 BREAST | 0.874 ± 0.12 | 0.811 ± 0.034 | 0.604 ± 0.092 | 0.259 ± 0.064 | 0.152 ± 0.028 | 0.0433 ± 0.0042 | 0.0447 ± 0.0045 | 0.0467 ± 0.0025 | 0.996 ± 0.018 | 0.867 ± 0.047 | 1.12 ± 0.075 | 0.782 ± 0.043 | 1.12 ± 0.029 | 0.771 ± 0.095 | 1.04 ± 0.16 | 0.841 ± 0.097
8 | C33A CERVIX | 1.22 ± 0.12 | 1.04 ± 0.14 | 1.4 ± 0.13 | 1.2 ± 0.09 | 1.31 ± 0.068 | 1.16 ± 0.1 | 1.061 ± 0.0074 | 0.124 ± 0.016 | 0.932 ± 0.1 | 0.973 ± 0.088 | 1.08 ± 0.013 | 1.08 ± 0.12 | 1.02 ± 0.14 | 1.1 ± 0.09 | 0.927 ± 0.11 | 1.04 ± 0.15
9 | CADOES1 SOFT TISSUE | 0.884 ± 0.093 | 1.01 ± 0.07 | 1 ± 0.076 | 0.903 ± 0.023 | 0.876 ± 0.11 | 0.842 ± 0.1 | 0.454 ± 0.1 | 0.129 ± 0.022 | 0.92 ± 0.1 | 0.85 ± 0.18 | 0.915 ± 0.1 | 0.874 ± 0.039 | 0.748 ± 0.081 | 0.679 ± 0.068 | 0.679 ± 0.015 | 0.689 ± 0.049
10 | CAL51 BREAST | 0.966 ± 0.047 | 0.886 ± 0.052 | 0.989 ± 0.033 | 0.93 ± 0.033 | 0.361 ± 0.0083 | 0.0827 ± 0.0082 | 0.0253 ± 0.00076 | 0.024 ± 0.0005 | 1.03 ± 0.062 | 0.941 ± 0.066 | 1.07 ± 0.031 | 1.04 ± 0.02 | 1.04 ± 0.021 | 1.08 ± 0.086 | 1.09 ± 0.017 | 0.959 ± 0.048
11 | CAL72 BONE | 1.05 ± 0.064 | 1 ± 0.016 | 0.982 ± 0.016 | 1 ± 0.017 | 1.15 ± 0.032 | 0.953 ± 0.04 | 0.249 ± 0.015 | 0.234 ± 0.011 | 1.04 ± 0.13 | 1.06 ± 0.12 | 1.06 ± 0.1 | 1.05 ± 0.12 | 1.11 ± 0.14 | 1.06 ± 0.13 | 1.08 ± 0.12 | 1.06 ± 0.17
12 | CAL120 BREAST | 0.87 ± 0.04 | 0.861 ± 0.032 | 0.904 ± 0.016 | 0.83 ± 0.0039 | 0.226 ± 0.024 | 0.119 ± 0.015 | 0.0875 ± 0.0079 | 0.076 ± 0.0061 | 0.984 ± 0.03 | 0.9688 ± 0.0083 | 0.981 ± 0.051 | 0.984 ± 0.061 | 0.997 ± 0.018 | 0.998 ± 0.038 | 0.992 ± 0.012 | 0.773 ± 0.11
13 | CASKI CERVIX | 0.745 ± 0.065 | 0.787 ± 0.04 | 0.77 ± 0.057 | 0.599 ± 0.072 | 0.1 ± 0.007 | 0.054 ± 0.0053 | 0.0283 ± 0.0025 | 0.0287 ± 0.0015 | 0.912 ± 0.075 | 0.896 ± 0.038 | 0.9707 ± 0.0083 | 0.937 ± 0.021 | 1.08 ± 0.015 | 1.06 ± 0.094 | 0.931 ± 0.092 | 0.715 ± 0.026
14 | CHLA90 AUTONOMIC GANGLIA | 0.927 ± 0.033 | 0.941 ± 0.023 | 0.912 ± 0.055 | 0.889 ± 0.037 | 0.476 ± 0.012 | 0.32 ± 0.018 | 0.175 ± 0.0084 | 0.143 ± 0.0023 | 0.98 ± 0.054 | 0.955 ± 0.068 | 0.961 ± 0.043 | 0.99 ± 0.091 | 1.02 ± 0.064 | 1.01 ± 0.12 | 0.979 ± 0.093 | 0.997 ± 0.13
15 | CME SYNOVIAL | 0.9 ± 0.14 | 0.767 ± 0.024 | 1.01 ± 0.12 | 0.896 ± 0.13 | 0.259 ± 0.033 | 0.222 ± 0.015 | 0.239 ± 0.029 | 0.306 ± 0.032 | 1.33 ± 0.17 | 1.37 ± 0.049 | 1.42 ± 0.099 | 1.37 ± 0.11 | 1.27 ± 0.23 | 1.42 ± 0.14 | 1.21 ± 0.099 | 1.23 ± 0.07
16 | COLO320DM LARGE INTESTINE | 1.04 ± 0.084 | 0.959 ± 0.094 | 1.05 ± 0.038 | 1.17 ± 0.075 | 1.26 ± 0.41 | 0.955 ± 0.16 | 0.505 ± 0.032 | 0.286 ± 0.048 | 1.09 ± 0.057 | 1.13 ± 0.085 | 1.04 ± 0.14 | 1.03 ± 0.12 | 1.19 ± 0.083 | 1.12 ± 0.03 | 1.21 ± 0.13 | 1.13 ± 0.055
17 | DU4475 BREAST | 0.798 ± 0.24 | 0.794 ± 0.15 | 0.764 ± 0.11 | 0.392 ± 0.11 | 0.0277 ± 0.0047 | 0.0283 ± 0.0051 | 0.027 ± 0.0066 | 0.0267 ± 0.0029 | 0.935 ± 0.13 | 0.973 ± 0.042 | 0.943 ± 0.13 | 0.865 ± 0.1 | 0.797 ± 0.13 | 0.715 ± 0.012 | 0.373 ± 0.067 | 0.203 ± 0.047
18 | H23 LUNG | 0.949 ± 0.026 | 0.939 ± 0.01 | 0.9313 ± 0.0035 | 0.727 ± 0.03 | 0.234 ± 0.0085 | 0.11 ± 0.014 | 0.0333 ± 0.0011 | 0.0323 ± 0.0025 | 1.01 ± 0.043 | 1.06 ± 0.077 | 1.05 ± 0.066 | 1.06 ± 0.017 | 1.07 ± 0.067 | 1.1 ± 0.087 | 1.08 ± 0.065 | 1.048 ± 0.004
19 | HCC78 LUNG | 0.814 ± 0.2 | 0.832 ± 0.067 | 0.961 ± 0.12 | 0.511 ± 0.097 | 0.0943 ± 0.0025 | 0.086 ± 0.011 | 0.053 ± 0.013 | 0.0667 ± 0.0021 | 0.9693 ± 0.0035 | 0.955 ± 0.076 | 0.969 ± 0.1 | 1.08 ± 0.15 | 1.04 ± 0.062 | 0.92 ± 0.2 | 0.967 ± 0.19 | 0.939 ± 0.2
20 | HCC202 BREAST | 0.965 ± 0.13 | 0.988 ± 0.31 | 0.715 ± 0.081 | 0.537 ± 0.17 | 0.264 ± 0.053 | 0.177 ± 0.021 | 0.171 ± 0.038 | 0.161 ± 0.027 | 1.36 ± 0.084 | 1.17 ± 0.2 | 1.07 ± 0.069 | 1.43 ± 0.17 | 1.1 ± 0.16 | 1.31 ± 0.17 | 1.15 ± 0.5 | 0.965 ± 0.018
